Source: ChEMBL document CHEMBL5634144, “Design, synthesis and biological evaluation of novel DCLK1 inhibitor containing purine skeleton for the treatment of pancreatic cancer” (Eur J Med Chem, 2023)
Activity calls are given as the source filed them. The rule behind the calls is not given here.

Tests used:
SW1990 [1] = assay: Induction of cell cycle arrest at S phase in human SW1990 cells at 2 uM incubated for 6 days by PI staining based flow cytometry (reference value: 21.20 %); format: functional; conditions: time 6 day
SW1990 [2] = assay: Induction of cell cycle arrest at G2/M phase in human SW1990 cells at 2 uM incubated for 6 days by PI staining based flow cytometry (reference value: 29.15 %); format: functional; conditions: time 6 day
SW1990 [3] = assay: Inhibition of cell invasion in human SW1990 cells at 0.5 to 2 uM by transwell assay; format: functional, cell-based; conditions: dose 0.5-2 µM
SW1990 [4] = assay: Inhibition of cell migration in human SW1990 cells at 0.5 to 2 uM by transwell assay; format: functional, cell-based; conditions: dose 0.5-2 µM
SW1990 [5] = assay: Downregulation of N-cadherin level in human SW1990 cells at 0.5 to 2 uM by Western blot analysis; format: functional, cell-based; conditions: dose 0.5-2 µM
SW1990 [6] = assay: Downregulation of Snail level in human SW1990 cells at 0.5 to 2 uM by Western blot analysis; format: functional, cell-based; conditions: dose 0.5-2 µM
SW1990 [7] = assay: Upregulation of E-cadherin level in human SW1990 cells at 0.5 to 2 uM by Western blot analysis; format: functional, cell-based; conditions: dose 0.5-2 µM
SW1990 [8] = assay: Antitumor activity in human SW1990 cells assessed as decrease in CD133 level at 0.5 to 2 uM by immunofluorescence based analysis; format: functional, cell-based; conditions: dose 0.5-2 µM
SW1990 [9] = assay: Antitumor activity in human SW1990 cells assessed as decrease in CD44 level at 0.5 to 2 uM by immunofluorescence based analysis; format: functional, cell-based; conditions: dose 0.5-2 µM
[10] = Metabolic stability in mouse liver microsomes assessed as half life at 1 uM preincubated for 10 mins followed by NADPH measured for 60 mins by LC-MS/MS analysis; format: ADME, Microsome; conditions: time 70 min
[11] = Metabolic stability in mouse liver microsomes assessed as intrinsic clearance at 1 uM preincubated for 10 mins followed by NADPH measured for 60 mins by LC-MS/MS analysis; format: ADME, Microsome; conditions: time 70 min, read-out: CLH
SW1990 [12] = assay: Antitumor activity against human SW1990 cells xenografted in BALB/c nude mouse model assessed as tumor growth inhibition treated intraperitoneally for 21 days consecutively; format: functional; conditions: dose 30-60 mg/kg, route ip, time 21.0 day
[13] = Toxicity in BALB/c nude mouse xenografted with human SW1990 cells assessed as drug tolerance at 30 to 60 mg/kg, ip for 21 days consecutively; format: organism-based; conditions: in vivo, 504 h, dose 30-60 mg/kg, time 21 day
[14] = Toxicity in BALB/c nude mouse xenografted with human SW1990 cells assessed as animal mortality at 30 to 60 mg/kg, ip for 21 days consecutively; format: organism-based; conditions: in vivo, 504 h, dose 30-60 mg/kg, time 21 day
SW1990 [15] = assay: Antitumor activity against human SW1990 cells xenografted in BALB/c nude mouse model assessed as tumor growth inhibition at 60 mg/kg, ip for 21 days consecutively relative to control; format: functional; conditions: SW1990, 504 h, time 21 day, read-out: TGI
[16] = Toxicity in BALB/c nude mouse xenografted with human SW1990 cells assessed as change in body weight at 30 to 60 mg/kg, ip for 21 days consecutively; format: organism-based; conditions: in vivo, 504 h, dose 30-60 mg/kg, time 21 day
SW1990 [17] = assay: Antitumor activity against human SW1990 cells xenografted in BALB/c nude mouse model assessed as change in cell contraction treated intraperitoneally for 21 days consecutively by H and E staining based analysis; format: functional; conditions: dose 30-60 mg/kg, route ip, time 21.0 day
SW1990 [18] = assay: Antitumor activity against human SW1990 cells xenografted in BALB/c nude mouse model assessed as change in agglutination treated intraperitoneally for 21 days consecutively by H and E staining based analysis; format: functional; conditions: dose 30-60 mg/kg, route ip, time 21.0 day
SW1990 [19] = assay: Antitumor activity against human SW1990 cells xenografted in BALB/c nude mouse model assessed as change in nuclear chromatin marginalization treated intraperitoneally for 21 days consecutively by H and E staining based analysis; format: functional; conditions: dose 30-60 mg/kg, route ip, time 21.0 day
SW1990 [20] = assay: Antitumor activity against human SW1990 cells xenografted in BALB/c nude mouse model assessed as decrease in N-cadherin level at 30 to 60 mg/kg, ip for 21 days consecutively by Western blot analysis; format: functional, organism-based; conditions: dose 30-60 mg/kg, time 21.0 day
SW1990 [21] = assay: Antitumor activity against human SW1990 cells xenografted in BALB/c nude mouse model assessed as decrease in Snail level at 30 to 60 mg/kg, ip for 21 days consecutively by Western blot analysis; format: functional, organism-based; conditions: dose 30-60 mg/kg, time 21.0 day
SW1990 [22] = assay: Antitumor activity against human SW1990 cells xenografted in BALB/c nude mouse model assessed as increase in E-cadherin level at 30 to 60 mg/kg, ip for 21 days consecutively by Western blot analysis; format: functional, organism-based; conditions: dose 30-60 mg/kg, time 21.0 day
SW1990 [23] = assay: Antitumor activity against human SW1990 cells xenografted in BALB/c nude mouse model assessed as decrease in CD133 level at 30 to 60 mg/kg, ip for 21 days consecutively by IHC analysis; format: functional, organism-based; conditions: dose 30-60 mg/kg, time 21.0 day
SW1990 [24] = assay: Antitumor activity against human SW1990 cells xenografted in BALB/c nude mouse model assessed as decrease in CD44 level at 30 to 60 mg/kg, ip for 21 days consecutively by IHC analysis; format: functional, organism-based; conditions: dose 30-60 mg/kg, time 21.0 day

## COc1cc(N2CCN(C)CC2)ccc1Nc1nc(Nc2ccccc2S(=O)(=O)C(C)C)c2nc[nH]c2n1
SW1990 [1]
  Activity: 14.23%
SW1990 [2]
  Activity: 22.63%
SW1990 [3]
  inhibition: Active
SW1990 [4]
  inhibition: Active
SW1990 [5]
  Activity: Active
SW1990 [6]
  Activity: Active
SW1990 [7]
  Activity: Active
SW1990 [8]
  Activity: Active
SW1990 [9]
  Activity: Active
[10]
  half-life at 1 µM: 45.9 min
[11]
  CLint scaled at 1 µM: 120 mL/min/kg
  microsomal CLint at 1 µM: 30.2 µL/min/mg
SW1990 [12]
  inhibition: Dose-Dependent Effect
[13]
  Activity: Non-Toxic
[14]
  Activity: Non-Toxic
SW1990 [15]
  inhibition in vivo at 60 mg/kg: 68.6%
[16]
  Activity: Toxic
SW1990 [17]
  Activity: Dose-Dependent Effect
SW1990 [18]
  Activity: Dose-Dependent Effect
SW1990 [19]
  Activity: Dose-Dependent Effect
SW1990 [20]
  Activity: Active
SW1990 [21]
  Activity: Active
SW1990 [22]
  Activity: Active
SW1990 [23]
  Activity: Active
SW1990 [24]
  Activity: Active
